Patent publication US11377442B2, “Small molecule agonists and antagonists of NR2F6 activity” (ZANDER THERAPEUTICS, INC., priority 2016, dated 2022)
Read-outs that look alike come from different tables or passages of the source.

How the values were obtained:
Assay type in all cases: cell-based
NR2F6 = target: T1, NR2F6 (Homo sapiens, UniProt P10588); experiment: NR2F6 agonist screening, Firefly signal cmpd/DMSO
T1 construct: expressed in transfected cells; also transient transfection
T1 sequence (P10588 1-404): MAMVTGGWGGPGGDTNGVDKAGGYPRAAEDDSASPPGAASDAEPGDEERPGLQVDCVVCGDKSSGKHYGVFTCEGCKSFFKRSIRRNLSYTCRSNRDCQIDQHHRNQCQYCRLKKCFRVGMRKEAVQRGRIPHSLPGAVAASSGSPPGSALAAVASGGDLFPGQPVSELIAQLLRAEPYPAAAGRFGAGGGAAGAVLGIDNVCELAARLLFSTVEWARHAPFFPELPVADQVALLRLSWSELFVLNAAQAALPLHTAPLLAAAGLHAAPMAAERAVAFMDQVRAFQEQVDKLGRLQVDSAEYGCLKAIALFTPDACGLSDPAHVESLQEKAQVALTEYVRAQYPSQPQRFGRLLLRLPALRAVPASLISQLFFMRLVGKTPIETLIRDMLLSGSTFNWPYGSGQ

Renilla = Renilla signal in NR2F6 agonist screening, cmpd/DMSO; conditions: Renilla, F4
HEK293 pGL4 = experiment: Firefly_pGL signal, cmpd/DMSO (pGL4 control cells); conditions: Homo sapiens
NR2F6 LBD = target: T2, NR2F6 LBD (Homo sapiens, UniProt P10588); experiment: NR2F6 LBD transient transfection; conditions: LBD
T2 construct: expressed in transfected cells
T2 sequence (P10588 165-393 limits assumed): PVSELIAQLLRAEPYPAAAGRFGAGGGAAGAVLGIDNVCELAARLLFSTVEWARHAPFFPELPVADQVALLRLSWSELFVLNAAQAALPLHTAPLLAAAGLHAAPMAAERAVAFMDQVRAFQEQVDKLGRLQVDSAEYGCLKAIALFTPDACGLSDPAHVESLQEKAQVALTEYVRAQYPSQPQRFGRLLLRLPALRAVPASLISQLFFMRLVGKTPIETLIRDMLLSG
Experimental: FIGS. 27A and 27B show NR2F6 and LBD transient transfection, respectively, for Compound D28. Higher concentrations were excluded due to lower signal (tox effect). FIGS. 27C and 27D show NR2F6 and LBD transient transfection at different concentrations for different compounds. 9 compounds were tested on LBD transfected cells (40, 10, 2 and 0.5 μM, 4 replicates). FIGS. 27E and 27F show toxicity of Compound D28. 9 compounds were tested for cytotoxicity on LBD transfected cells (40, 10, 2 and 0.5 μM, 4 replicates). […] Cytotoxicity normalized to DMSO is shown in FIG. 27F (0% cytotoxicity corresponds to DMSO signal, 100%—zero signal).
FIGS. 34A and 34B show NR2F6 LBD transient transfection for Compound E21. 9 compounds were tested on LBD transfected cells (40, 10, 2 and 0.5 μM, 4 replicates). FIGS. 34C and 34D show NR2F6 and LBD transient transfection at different concentrations for different compounds. 9 compounds were tested on LBD transfected cells (40, 10, 2 and 0.5 μM, 4 replicates). […] Cytotoxicity normalized to DMSO is shown in FIG. 34D (0% cytotoxicity corresponds to DMSO signal, 100%—zero signal). All compounds were tested at 5, 10, 25 and 50 uM in duplicates. Dog PBMC (1×10^6 cells/mL) were activated by 10 ng/mL PMA+500 ng/mL ionomycin. Data were normalized to controls with (100%)/without (0%) PMA+ionomycin activation.
FIGS. 39A and 39B show NR2F6 LBD transient transfection for Compound F1. 9 compounds were tested on LBD transfected cells (40, 10, 2 and 0.5 μM, 4 replicates). FIGS. 39C and 39D show toxicity of NR2F6 LBD transient transfection. 9 compounds were tested for cytotoxicity on LBD transfected cells (40, 10, 2 and 0.5 μM, 4 replicates). Tox effect causes lower signal compared to DMSO. Cytotoxicity normalized to DMSO is shown in FIG. 39D (0% cytotoxicity corresponds to DMSO signal, 100%—zero signal).

[1] = read-out: Renilla, F4, cmpd/DMSO (mean)
[2] = 1% FBS, read-out: Renilla, F4, 1% FBS, cmpd/DMSO (mean)
[3] = 10% FBS, read-out: Renilla, F4, 10% FBS, cmpd/DMSO (mean)
[4] = HEK293, 0.5 uM, pGL4, read-out: Firefly pGL4, cmpd/DMSO (mean)
[5] = HEK293, 2 uM, pGL4, read-out: Firefly pGL4, cmpd/DMSO (mean)
[6] = HEK293, 10 uM, pGL4, read-out: Firefly pGL4, cmpd/DMSO (mean)
[7] = HEK293, 40 uM, pGL4, read-out: Firefly pGL4, cmpd/DMSO (mean)
[8] = HEK293, pGL4, 1% FBS, 0.5 uM, read-out: Firefly, pGL4, 1% FBS, cmpd/DMSO (mean)
[9] = HEK293, pGL4, 1% FBS, 2 uM, read-out: Firefly, pGL4, 1% FBS, cmpd/DMSO (mean)
[10] = HEK293, pGL4, 1% FBS, 10 uM, read-out: Firefly, pGL4, 1% FBS, cmpd/DMSO (mean)
[11] = HEK293, pGL4, 1% FBS, 40 uM, read-out: Firefly, pGL4, 1% FBS, cmpd/DMSO (mean)
[12] = HEK293, pGL4, 10% FBS, 0.5 uM, read-out: Firefly, pGL4, 10% FBS, cmpd/DMSO (mean)
[13] = HEK293, pGL4, 10% FBS, 2 uM, read-out: Firefly, pGL4, 10% FBS, cmpd/DMSO (mean)
[14] = HEK293, pGL4, 10% FBS, 10 uM, read-out: Firefly, pGL4, 10% FBS, cmpd/DMSO (mean)
[15] = HEK293, pGL4, 10% FBS, 40 uM, read-out: Firefly, pGL4, 10% FBS, cmpd/DMSO (mean)

CCCN[C@H]1CS(=O)(=O)C[C@@H]1S(=O)(=O)c1ccc(Cl)cc1 [Compound D117]
Firefly F4, cmpd/DMSO (mean) (NR2F6; 0.5 uM): 1.1 | Firefly F4, cmpd/DMSO (mean) (NR2F6; 2 uM): 2.2 | Firefly F4, cmpd/DMSO (mean) (NR2F6; 10 uM): 4.7 | Firefly F4, cmpd/DMSO (mean) (NR2F6; 40 uM): 0.5 | F4, Firefly/Renilla for S/B(F4) > 3 (NR2F6; 1% FBS, 10 uM): 3.4 | Firefly, F4/pGL4 for S/B(F4) > 3 (NR2F6; 1% FBS, 10 uM): 3.2 | F4, Firefly/Renilla for S/B(F4) > 3 (NR2F6; 10% FBS, 10 uM): 2.3 | Firefly, F4/pGL4 for S/B(F4) > 3 (NR2F6; 10% FBS, 10 uM): 1.9 | Firefly, F4, 1% FBS, cmpd/DMSO (mean) (NR2F6; 1% FBS, 0.5 uM): 0.9 | Firefly, F4, 1% FBS, cmpd/DMSO (mean) (NR2F6; 1% FBS, 2 uM): 2.1 | Firefly, F4, 1% FBS, cmpd/DMSO (mean) (NR2F6; 1% FBS, 10 uM): 5.9 | Firefly, F4, 1% FBS, cmpd/DMSO (mean) (NR2F6; 1% FBS, 40 uM): 0.1 | Firefly, F4, 10% FBS, cmpd/DMSO (mean) (NR2F6; 10% FBS, 0.5 uM): 0.9 | Firefly, F4, 10% FBS, cmpd/DMSO (mean) (NR2F6; 10% FBS, 2 uM): 1.2 | Firefly, F4, 10% FBS, cmpd/DMSO (mean) (NR2F6; 10% FBS, 10 uM): 4.1 | Firefly, F4, 10% FBS, cmpd/DMSO (mean) (NR2F6; 10% FBS, 40 uM): 2.9 | fold induction at 0.5 µM (Renilla; [1]): 1 | fold induction at 2 µM (Renilla; [1]): 1.3 | fold induction at 10 µM (Renilla; [1]): 1.7 | fold induction at 40 µM (Renilla; [1]): 0.4 | fold induction at 0.5 µM (Renilla; [2]): 1 | fold induction at 2 µM (Renilla; [2]): 1.4 | fold induction at 10 µM (Renilla; [2]): 1.7 | fold induction at 40 µM (Renilla; [2]): 0.8 | fold induction at 0.5 µM (Renilla; [3]): 1 | fold induction at 2 µM (Renilla; [3]): 1 | fold induction at 10 µM (Renilla; [3]): 1.8 | fold induction at 40 µM (Renilla; [3]): 2.4 | fold induction at 0.5 µM (HEK293 pGL4; [4]): 1 | fold induction at 2 µM (HEK293 pGL4; [5]): 1.4 | fold induction at 10 µM (HEK293 pGL4; [6]): 4.6 | fold induction at 40 µM (HEK293 pGL4; [7]): 0.3 | fold induction at 0.5 µM (HEK293 pGL4; [8]): 1 | fold induction at 2 µM (HEK293 pGL4; [9]): 1.4 | fold induction at 10 µM (HEK293 pGL4; [10]): 1.9 | fold induction at 40 µM (HEK293 pGL4; [11]): 0.6 | fold induction at 0.5 µM (HEK293 pGL4; [12]): 1.1 | fold induction at 2 µM (HEK293 pGL4; [13]): 1.6 | fold induction at 10 µM (HEK293 pGL4; [14]): 2.2 | fold induction at 40 µM (HEK293 pGL4; [15]): 1.2 | Firefly LBD, cmpd/DMSO (mean) (NR2F6 LBD; 0.5 uM): 1.1 | Firefly LBD, cmpd/DMSO (mean) (NR2F6 LBD; 2 uM): 2.1 | Firefly LBD, cmpd/DMSO (mean) (NR2F6 LBD; 10 uM): 4.2 | Firefly LBD, cmpd/DMSO (mean) (NR2F6 LBD; 40 uM): 0.2

COCCN[C@H]1CS(=O)(=O)C[C@@H]1S(=O)(=O)c1cccs1 [Compound D107]
Firefly F4, cmpd/DMSO (mean) (NR2F6; 0.5 uM): 1.3 | Firefly F4, cmpd/DMSO (mean) (NR2F6; 2 uM): 1.6 | Firefly F4, cmpd/DMSO (mean) (NR2F6; 10 uM): 2.2 | Firefly F4, cmpd/DMSO (mean) (NR2F6; 40 uM): 4.0 | F4, Firefly/Renilla for S/B(F4) > 3 (NR2F6; 1% FBS, 40 uM): 2.2 | Firefly, F4/pGL4 for S/B(F4) > 3 (NR2F6; 1% FBS, 40 uM): 2.6 | F4, Firefly/Renilla for S/B(F4) > 3 (NR2F6; 10% FBS, 40 uM): 2.9 | Firefly, F4/pGL4 for S/B(F4) > 3 (NR2F6; 10% FBS, 40 uM): 2.7 | Firefly, F4, 1% FBS, cmpd/DMSO (mean) (NR2F6; 1% FBS, 0.5 uM): 1.5 | Firefly, F4, 1% FBS, cmpd/DMSO (mean) (NR2F6; 1% FBS, 2 uM): 0.8 | Firefly, F4, 1% FBS, cmpd/DMSO (mean) (NR2F6; 1% FBS, 10 uM): 1.4 | Firefly, F4, 1% FBS, cmpd/DMSO (mean) (NR2F6; 1% FBS, 40 uM): 3.8 | Firefly, F4, 10% FBS, cmpd/DMSO (mean) (NR2F6; 10% FBS, 0.5 uM): 0.8 | Firefly, F4, 10% FBS, cmpd/DMSO (mean) (NR2F6; 10% FBS, 2 uM): 1.4 | Firefly, F4, 10% FBS, cmpd/DMSO (mean) (NR2F6; 10% FBS, 10 uM): 1.5 | Firefly, F4, 10% FBS, cmpd/DMSO (mean) (NR2F6; 10% FBS, 40 uM): 6.1 | fold induction at 0.5 µM (Renilla; [1]): 1.1 | fold induction at 2 µM (Renilla; [1]): 1 | fold induction at 10 µM (Renilla; [1]): 1.2 | fold induction at 40 µM (Renilla; [1]): 1.5 | fold induction at 0.5 µM (Renilla; [2]): 0.9 | fold induction at 2 µM (Renilla; [2]): 1.2 | fold induction at 10 µM (Renilla; [2]): 1.3 | fold induction at 40 µM (Renilla; [2]): 1.8 | fold induction at 0.5 µM (Renilla; [3]): 1 | fold induction at 2 µM (Renilla; [3]): 1 | fold induction at 10 µM (Renilla; [3]): 1.3 | fold induction at 40 µM (Renilla; [3]): 2.1 | fold induction at 0.5 µM (HEK293 pGL4; [4]): 1.2 | fold induction at 2 µM (HEK293 pGL4; [5]): 1.5 | fold induction at 10 µM (HEK293 pGL4; [6]): 2 | fold induction at 40 µM (HEK293 pGL4; [7]): 2.5 | fold induction at 0.5 µM (HEK293 pGL4; [8]): 1.3 | fold induction at 2 µM (HEK293 pGL4; [9]): 1.4 | fold induction at 10 µM (HEK293 pGL4; [10]): 1.8 | fold induction at 40 µM (HEK293 pGL4; [11]): 1.4 | fold induction at 0.5 µM (HEK293 pGL4; [12]): 1.1 | fold induction at 2 µM (HEK293 pGL4; [13]): 1.3 | fold induction at 10 µM (HEK293 pGL4; [14]): 1.7 | fold induction at 40 µM (HEK293 pGL4; [15]): 2.3 | Firefly LBD, cmpd/DMSO (mean) (NR2F6 LBD; 0.5 uM): 0.9 | Firefly LBD, cmpd/DMSO (mean) (NR2F6 LBD; 2 uM): 1.1 | Firefly LBD, cmpd/DMSO (mean) (NR2F6 LBD; 10 uM): 2.2 | Firefly LBD, cmpd/DMSO (mean) (NR2F6 LBD; 40 uM): 2.2
